In US4426519A, “7-(2-Amino-4-thiazolyl)-acetamido cephalosporanic acids” (Roussel Uclaf, priority 1979, dated 1984):
In brackets after ≈: the same amount, converted by molar mass. Where a name gives a salt, the structure may show the parent alone. Read-outs that look alike come from different tables or passages of the source.

Experiments:
Assay in all cases: MIC, dilution in liquid medium
Type in all cases: cell-based
[1] = test system: Escherichia Coli Resistant Gentamycine, Tobramycine R 55 123 D
Protocol: (§1) The method used was a dilution of a liquid medium where a series of tubes received the same quantity of a sterile nutritive media and increasing doses of the test compounds were placed therein. Then each tube was seeded with a bacterial strain and was incubated for 24 to 48 hours at 37° C. in an oven. The increasing inhibition was determined by transillulumination to determine the minimum inhibiting concentration (MIC in μg/ml) and the results are reported in the following Tables.

[2] = test system: Klebsiella pneumoniae Exp. 52 145
Protocol: as §1

[3] = test system: Proteus mirabilis (indol-) A 235
Protocol: as §1

[4] = test system: Streptococcus pyogenes A 561
Protocol: as §1

[5] = test system: Bacillus subtilis ATCC 6 633
Protocol: as §1

[6] = test system: Escherichia Coli sensitive Tetracycline ATCC 9 637
Protocol: as §1

[7] = test system: Staphylococcus aureus UC 1 128 Pen-resistant
Protocol: as §1

[8] = test system: Escherichia Coli Exp. TO26 B6
Protocol: as §1

[9] = test system: Escherichia Coli Resistant Tetracycline ATCC 11 303
Protocol: as §1

[10] = test system: Staphylococcus aureus exp.n°54 146
Protocol: as §1

[11] = test system: Staphylococcus aureus ATCC 6 538 Pen Sensitive
Protocol: as §1

Providencia Du 48 = test system: Providencia Du 48
Protocol: as §1

[12] = test system: Klebsiella pneumoniae 2 536 Resistant Gentamycine
Protocol: as §1

[13] = test system: Serratia Resistant Gentamycine 2 532
Protocol: as §1

[14] = test system: Salmonella typhimurium 420; settings: Salmonella enterica
Protocol: as §1

[15] = test system: Streptococcus faecalis 5 432; settings: Enterococcus faecalis, 5432, 24 h
Protocol: as §1

SMILES	MIC ([1]; 24 h)	MIC ([1]; 48 h)	MIC ([2]; EXP.52145, 24 h, read-out: MIC)	MIC ([2]; EXP.52145, 48 h, read-out: MIC)	MIC ([3]; 24 h)	MIC ([3]; 48 h)	MIC ([4]; A561, 24 h)	MIC ([4]; A561, 48 h)	MIC ([5]; ATCC6, 24 h)	MIC ([5]; ATCC6, 48 h)	MIC ([6]; ATCC9, 24 h)	MIC ([6]; ATCC9, 48 h)	MIC ([7]; UC1, 24 h)	MIC ([7]; UC1, 48 h)	MIC ([9]; ATCC11, 24 h)	MIC ([9]; ATCC11, 48 h)	MIC ([10]; 24 h)	MIC ([10]; 48 h)	MIC ([11]; ATCC6, 24 h)	MIC ([11]; ATCC6, 48 h)	also measured
CC(=O)OCC1=C(C(=O)O)N2C(=O)C(NC(=O)/C(=N\OCCSC#N)c3csc(N)n3)C2SC1 (stereo not drawn) [Example 7, Syn isomer of 3-acetoxymethyl-7-[2-(2-amino-4-thiazolyl)-2-(2-thiocyanatoethoxyimino)-acetamido]-ceph-3-eme-4-carboxylic acid]	1 µg/mL (≈ 1.9 µM)	1 µg/mL (≈ 1.9 µM)	0.5 µg/mL (≈ 0.95 µM)	0.5 µg/mL (≈ 0.95 µM)	0.2 µg/mL (≈ 0.38 µM)	0.5 µg/mL (≈ 0.95 µM)	0.02 µg/mL (≈ 0.038 µM)	0.02 µg/mL (≈ 0.038 µM)	1 µg/mL (≈ 1.9 µM)	2 µg/mL (≈ 3.8 µM)	5 µg/mL (≈ 9.5 µM)	5 µg/mL (≈ 9.5 µM)	1 µg/mL (≈ 1.9 µM)	1 µg/mL (≈ 1.9 µM)	0.2 µg/mL (≈ 0.38 µM)	0.2 µg/mL (≈ 0.38 µM)	1 µg/mL (≈ 1.9 µM)	2 µg/mL (≈ 3.8 µM)	1 µg/mL (≈ 1.9 µM)	1 µg/mL (≈ 1.9 µM)	MIC ([8]; 24 h): 2 µg/mL (≈ 3.8 µM); MIC ([8]; 48 h): 2 µg/mL (≈ 3.8 µM); MIC (Providencia Du 48; DU48, 24 h, read-out: MIC): 10 µg/mL (≈ 19 µM); MIC (Providencia Du 48; DU48, 48 h, read-out: MIC): 10 µg/mL (≈ 19 µM); MIC ([12]; 24 h): 5 µg/mL (≈ 9.5 µM); MIC ([12]; 48 h): 5 µg/mL (≈ 9.5 µM); MIC ([13]; 24 h): 2 µg/mL (≈ 3.8 µM); MIC ([13]; 48 h): 3 µg/mL (≈ 5.7 µM); MIC ([14]; 24 h): 1 µg/mL (≈ 1.9 µM); MIC ([14]; 48 h): 3 µg/mL (≈ 5.7 µM)
CC(=O)OCC1=C(C(=O)O)N2C(=O)C(NC(=O)/C(=N\OCCSC(=N)NN)c3csc(N)n3)C2SC1 (stereo not drawn) [Example 8, Internal salt of syn isomer of 3-acetoxymethyl-7-[2-(2-amino-4-thiazolyl)-2-(2-iminohydrazinomethylthioethoxyimino)acetamido]-ceph-3-eme-4-carboxylic acid]	1 µg/mL	1 µg/mL			0.2 µg/mL	0.2 µg/mL	0.02 µg/mL	0.05 µg/mL	1 µg/mL	3 µg/mL	2 µg/mL	2 µg/mL	2 µg/mL	2 µg/mL	0.5 µg/mL	0.5 µg/mL	1 µg/mL	2 µg/mL	1 µg/mL	2 µg/mL	MIC ([2]; EXP.52145, 24 h): 1 µg/mL; MIC ([2]; EXP.52145, 48 h): 1 µg/mL; MIC ([8]; 24 h): 1 µg/mL; MIC ([8]; 48 h): 1 µg/mL; MIC ([12]; 24 h): 5 µg/mL; MIC ([12]; 48 h, read-out: MIC): 10 µg/mL; MIC ([13]; 24 h): 1 µg/mL; MIC ([13]; 48 h): 2 µg/mL; MIC ([14]; 24 h): 1 µg/mL; MIC ([14]; 48 h): 2 µg/mL
CC(=O)OCC1=C(C(=O)O)N2C(=O)C(NC(=O)/C(=N\OC(F)F)c3csc(N)n3)C2SC1 (stereo not drawn) [Example 9, Syn isomer of 3-acetoxymethyl-7-[2-(2-amino-4-thiazolyl)-2-difluoromethoxyimino-acetamido]-ceph-3-eme-4-carboxylic acid]			0.05 µg/mL (≈ 0.102 µM)	0.05 µg/mL (≈ 0.102 µM)	0.05 µg/mL (≈ 0.102 µM)	0.05 µg/mL (≈ 0.102 µM)	0.05 µg/mL (≈ 0.102 µM)	0.05 µg/mL (≈ 0.102 µM)	1 µg/mL (≈ 2.03 µM)	5 µg/mL (≈ 10.2 µM)		1 µg/mL (≈ 2.03 µM)	1 µg/mL (≈ 2.03 µM)	2 µg/mL (≈ 4.07 µM)	0.05 µg/mL (≈ 0.102 µM)	0.1 µg/mL (≈ 0.203 µM)	1 µg/mL (≈ 2.03 µM)	2 µg/mL (≈ 4.07 µM)	1 µg/mL (≈ 2.03 µM)	1 µg/mL (≈ 2.03 µM)	MIC ([1]; 24 h, read-out: MIC): 0.2 µg/mL (≈ 0.407 µM); MIC ([1]; 48 h, read-out: MIC): 0.2 µg/mL (≈ 0.407 µM); MIC ([6]; ATCC9, 24 h, read-out: MIC): 0.5 µg/mL (≈ 1.02 µM); MIC (Providencia Du 48; DU48, 24 h): 2 µg/mL (≈ 4.07 µM); MIC (Providencia Du 48; DU48, 48 h): 2 µg/mL (≈ 4.07 µM); MIC [15]: 5 µg/mL (≈ 10.2 µM); MIC ([12]; 24 h, read-out: MIC): 0.5 µg/mL (≈ 1.02 µM); MIC ([12]; 48 h, read-out: MIC): 0.5 µg/mL (≈ 1.02 µM); MIC ([13]; 24 h, read-out: MIC): 0.5 µg/mL (≈ 1.02 µM); MIC ([13]; 48 h, read-out: MIC): 0.5 µg/mL (≈ 1.02 µM); MIC ([14]; 24 h, read-out: MIC): 0.5 µg/mL (≈ 1.02 µM); MIC ([14]; 48 h, read-out: MIC): 0.5 µg/mL (≈ 1.02 µM)
